{"source": "patent US20260356849A1", "about": "“COMPOUNDS AND METHODS FOR TREATING CANCERS” (CEDARS-SINAI MEDICAL CENTER, priority 2022, published 2026)", "key": {"HepG2 cells": {"test_system": "HepG2 cells", "experiment": "MTT assay in HepG2 cells", "assay_type": "cell-based", "conditions": "Homo sapiens", "description": "(§1) The inventors identified nine inhibitors and perfomed an EdU assay after treating non-malignant (HEK293, AML12) and malignant (HepG2, MzChA-1, HT-29, RKO) cells with varying concentrations of GIT1 inhibitor for 24 hours (results are mean±SE from 3 independent experiments done in duplicates, *p<0.05 vs. DMSO). An MTT assay was also performed after treating primary human and mouse hepatocytes and liver and colon cancer cells with varying concentrations of GIT1 inhibitor for 24 hours (results are mean±SE from 3 independent experiments done in duplicates, *p<0.05 vs. DMSO). […] Percoll may be used to remove dead human hepatocytes."}, "[1]": {"test_system": "malignant (HepG2, MzChA-1, HT-29, RKO) cells", "experiment": "EdU/MTT growth assay in cancer cells", "assay_type": "cell-based", "description": "as §1"}, "AML12 cells": {"test_system": "AML12 cells", "experiment": "Cell cycle flow cytometry AML12", "assay_type": "cell-based", "conditions": "1-5 μM, 24 hours"}, "RKO cells [2]": {"test_system": "RKO cells", "experiment": "Migration assay RKO", "assay_type": "cell-based, human", "conditions": "1 μM, 24 hours"}, "MEK and ERK activity": {"test_system": "MEK and ERK activity", "experiment": "Western blot ERK and MEK activity in AML12 cells", "assay_type": "cell-based", "conditions": "2-10 μM, 24 hours"}, "cyclin B1/CDK1": {"test_system": "cyclin B1/CDK1", "experiment": "Cyclin B1/CDK1 activation", "assay_type": "cell-based", "description": "HepG2 and RKO cells were treated with 5 μM of compound C3 for 24 hours, followed by co-IP with anti-CDK1 antibody and western blots. […] The densitometric changes are from at least 3 independent experiments in mean±SE; *p<0.05 vs. DMSO. Binding of cyclin BI to CDK1 initiates conformational changes allowing CDK1 to alter its phosphorylation status and to become an active kinase."}, "[3]": {"target": "GIT1-cyclin B1 interaction (Homo sapiens, UniProt Q9Y2X7)", "sequence (Q9Y2X7 whole entry)": "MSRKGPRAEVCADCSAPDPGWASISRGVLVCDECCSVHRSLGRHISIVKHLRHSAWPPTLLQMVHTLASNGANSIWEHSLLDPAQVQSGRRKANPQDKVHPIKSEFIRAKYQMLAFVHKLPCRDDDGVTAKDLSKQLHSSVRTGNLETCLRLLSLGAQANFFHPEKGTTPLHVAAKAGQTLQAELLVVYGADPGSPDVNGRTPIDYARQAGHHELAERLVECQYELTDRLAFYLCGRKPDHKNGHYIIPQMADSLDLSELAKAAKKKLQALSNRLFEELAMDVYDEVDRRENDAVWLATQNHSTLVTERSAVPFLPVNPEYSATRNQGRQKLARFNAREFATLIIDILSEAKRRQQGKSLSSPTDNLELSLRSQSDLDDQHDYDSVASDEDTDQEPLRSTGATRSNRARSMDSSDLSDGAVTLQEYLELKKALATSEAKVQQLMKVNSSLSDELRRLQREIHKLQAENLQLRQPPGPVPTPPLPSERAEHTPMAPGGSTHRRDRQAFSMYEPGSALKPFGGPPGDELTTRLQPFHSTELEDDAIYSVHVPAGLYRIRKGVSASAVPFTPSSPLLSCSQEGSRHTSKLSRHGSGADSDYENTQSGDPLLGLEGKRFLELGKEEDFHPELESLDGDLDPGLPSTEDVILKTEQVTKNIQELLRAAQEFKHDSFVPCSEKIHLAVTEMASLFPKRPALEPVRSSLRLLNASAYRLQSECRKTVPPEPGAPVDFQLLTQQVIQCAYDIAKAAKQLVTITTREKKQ", "experiment": "Co-IP GIT1-cyclin B1 interaction in HepG2", "assay_type": "cell-based", "conditions": "HepG2, 10 μM, 24 h", "description": "HepG2 cells were treated with compound C3 at 10 μM for 24 h and subjected to co-IP with anti-GIT1 or anti-cyclin B1 and blotted for cyclin B1 and GIT1, ratios of cyclin B1 bound to GIT1 vs. DMSO control are shown, *p<0.05 vs. DMSO from n=3 (FIG. 38B).\nIn vitro translated GIT1, recombinant MAT2B, and cyclin B1 (both 0.5 μg) were used to evaluate their direct binding, as shown in the blots of FIG. 18A. Also shown, is the results of (FIG. 18B) treating HepG2 cells with a GIT1 inhibitor at 10 μM for 24 hours and subjected to co-IP with anti-GIT1 or cyclin B1 antibody and immunoblotted for cyclin BI and GIT1. In vitro translated GIT1, recombinant MAT2B, and cyclin B1 (both 0.5 μg) were used to evaluate their direct binding. The ratio of cyclin BI bound to GIT1 was compared to DMSO control."}, "GIT1": {"test_system": "GIT1", "experiment": "GIT1 dependence of cyclin B1 and EdU effects", "assay_type": "cell-based"}, "MC38 cells [4]": {"test_system": "MC38 cells", "experiment": "Syngeneic subcutaneous MC38 mouse model", "assay_type": "in vivo, C57/BL6 mouse", "description": "MC38 cells were injected subcutaneously in both flanks. Compound C3 and DMSO were injected intratumorally every other day at 100 μM (5×IC50) starting at day 7 when the tumors averaged 0.5 cm in diameter. Tumor size was measured by caliper, with the tumor volume calculated according to the formula: (π/6)*(length*width*height). Each mouse received compound C3 injection in tumors on one flank and DMSO in the contralateral tumor. Animals were sacrificed on day 13."}, "RKO cells [5]": {"test_system": "RKO cells", "experiment": "RKO growth in liver of nude mice", "assay_type": "in vivo", "conditions": "25 mg/kg ip daily for 5 days", "description": "FIG. 39A-FIG. 39D depicts, in accordance with various embodiments of the invention, compound C3 inhibits human CRC growth in liver. RKO cells (2×10^6) stably expressing luciferase were injected into the liver of nude mice. Twenty days later (day 0) DMSO and compound C3 were injected intraperitoneally (ip) in FIG. 39A pilot experiment using 10 mg/kd/d×5 days, rest 2 days and repeat. FIG. 39B 25 mg/kg daily for 5 days and imaged on day 7 using IVIS Spectrum photon-counting device optical imaging system (Xenogen, Alameda, CA.). FIG. 39C graph summarizes luciferase intensity from FIG. 39B. FIG. 39D gross pictures of the livers at day 7 from FIG. 39B, point to tumors *p<0.05.\nCompound C3 powder was dissolved in pure DMSO at 50 mg/ml, as a stock store in-80 °C. Stock solution was dissolved in 200 μl 0.9% saline to reach 25 mg/kg. For control group, DMSO was dissolved in 200 μl saline to achieve a concentration of DMSO in saline of 7.5%. RKO cells (2×106) stably expressing luciferase were injected directly into the liver of nude mice. Twenty days later DMSO and Compound C3 were injected intraperitoneally (ip) at a dose of 25 mg/kg daily for 5 days and imaged on day 7."}, "MC38 cells [6]": {"test_system": "MC38 cells", "experiment": "MC38 CRC liver metastasis (CRLM) model in immune competent mice", "assay_type": "in vivo", "description": "FIG. 40A-FIG. 40E depicts, in accordance with various embodiments of the invention, compound C3 inhibits CRC liver metastasis in immune competent mice. MC38 cells (2.5×10^5) stably expressing luciferase where injected intrasplenically followed by splenectomy. 7 days later compound C3 (20 mg/kg on day 1 sinc MC38 grows rapidly, then 15 mg/kg daily×3 days, rest for 2 days, then 15 mg/kg×2 days) or DMSO were given ip. Small animal imaging (FIG. 40A). H&E of tumors (FIG. 40B). Luciferase intensity at various time points (FIG. 40C). Gross pictures of the livers at day 9 (FIG. 40D), ALT and AST levels after above, or compound C3 (15 mg/kg/d for 21 days), *p<0.05 vs. DMSO (FIG. 40E).\nCompound C3 powder was dissolved in pure DMSO at 50 mg/ml, as a stock store in-80 °C. Stock solution was dissolved in 200 μl 0.9% saline to reach 15 mg/kg. For control group, DMSO was dissolved in 200 μl saline to achieve a concentration of DMSO in saline of 4.5%. MC38 cells (2.5×105) stably expressing luciferase were injected intrasplenically followed by splenectomy (CRLM model). Seven days later, Compound C3 (20 mg/kg on day 1, then 15 mg/kg daily ×3 days, rest for 2 days, then 15 mg/kg×2 days) or DMSO were administered ip."}, "[7]": {"conditions": "100 μM intratumorally every other day"}, "[8]": {"conditions": "100 μM intratumorally, western blot"}}, "note": "“Also recorded” adds a separate entry of the source."}
{"smiles": "CC1(C)Cc2nc3sc4c(=O)n(CC(=O)NCc5ccco5)cnc4c3cc2CO1", "note": "[Compound C3, 2-(8,8-Dimethyl-4-oxo-7,10-dihydro-8H-pyrano[3″,4″: 5′,6′]pyrido[3′,2′: 4,5]thieno[3,2-d]pyrimidin-3 (4H)-yl)-N-(2-furylmethyl) acetamide]", "values": [{"measurement": "IC50", "setting": "HepG2 cells", "value": "~20", "unit": "µM"}, {"measurement": "apoptosis in cancer cells (FIG. 33)", "setting": "[1]", "value": "slight increase in apoptosis"}, {"measurement": "cytotoxicity in cancer cells", "setting": "[1]; 10 μM, 24 hours", "value": "cytotoxic in cancer cells at 10 μM"}, {"measurement": "growth inhibitory effect", "setting": "[1]; 24 hours, among nine inhibitors", "value": "most potent growth inhibitory effect"}, {"measurement": "G2/M arrest, AML12", "setting": "AML12 cells", "value": "did not occur"}, {"measurement": "migration of RKO cells", "setting": "RKO cells [2]", "value": "significant inhibition in migration"}, {"measurement": "ERK and MEK activities, AML12", "setting": "MEK and ERK activity", "value": "not in AML12 cells"}, {"measurement": "cyclin B1/CDK1 activation", "setting": "cyclin B1/CDK1", "value": "activated cyclin B1/CDK1"}, {"measurement": "GIT1-cyclin B1 interaction", "setting": "[3]", "value": "promotes their interaction; also recorded: enhances GIT1-cyclin BI interaction"}, {"measurement": "GIT1 dependence of lower EdU (growth)", "setting": "GIT1", "value": "lower EdU requires GIT1"}, {"measurement": "GIT1 dependence of increase in cyclin B1 level / stabilization", "setting": "GIT1; n=3", "value": "GIT1 dependent; also recorded: increase in cyclin BI level requires GIT1"}, {"measurement": "H&E of tumors", "setting": "MC38 cells [4]; [7]", "value": "spindle MC38 tumor cells turned into small round cells"}, {"measurement": "H&E staining of major organs", "setting": "MC38 cells [4]; [7]", "value": "no tissue damage or toxicity"}, {"measurement": "PCNA staining in tumors", "setting": "MC38 cells [4]; [7]", "value": "dramatic effect in reducing its staining"}, {"measurement": "TUNEL assay of tumors", "setting": "MC38 cells [4]; [7]", "value": "more apoptopic cells"}, {"measurement": "body weights", "setting": "MC38 cells [4]; [7]", "value": "not significantly different"}, {"measurement": "tumor growth, subcutaneous", "setting": "MC38 cells [4]; 100 μM intratumorally every other day from day 7, day 13", "value": "inhibits colon cancer growth"}, {"measurement": "MEK1/2 activity in tumors", "setting": "MC38 cells [4]; [8]", "value": "decreased MEK1/2 activity"}, {"measurement": "cyclin D1 level in tumors", "setting": "MC38 cells [4]; [8]", "value": "less cyclin D1 level"}, {"measurement": "overt toxicity", "setting": "RKO cells [5]", "value": "without causing overt toxicity"}, {"measurement": "tumor growth in liver", "setting": "RKO cells [5]; imaged day 7", "value": "effective in reducing tumor growth"}, {"measurement": "tumor growth, liver metastasis", "setting": "MC38 cells [6]; ip 20 mg/kg day 1, 15 mg/kg daily ×3 days, rest 2 days, 15 mg/kg×2 days", "value": "Tumor growth was inhibited"}, {"measurement": "toxicity", "setting": "MC38 cells [6]; ip 20 mg/kg day 1, then 15 mg/kg, ALT and AST", "value": "without toxicity"}]}
